ChEMBL document CHEMBL5137033, “Development of sulfonamide-based NLRP3 inhibitors: Further modifications and optimization through structure-activity relationship studies” (Eur J Med Chem, 2022)

Tests used:
[1] = target: T1, NACHT, LRR and PYD domains-containing protein 3 (Mus musculus, UniProt Q8R4B8); experiment: Inhibition of NLRP3 inflammasome in LPS-primed mouse J774.A1 cells assessed as reduction in IL-1beta secretion preincubated for 30 mins followed by ATP addition and measured after 30 mins by ELISA; type: cell-based
T1 sequence (Q8R4B8 whole entry, the tested form may be a part): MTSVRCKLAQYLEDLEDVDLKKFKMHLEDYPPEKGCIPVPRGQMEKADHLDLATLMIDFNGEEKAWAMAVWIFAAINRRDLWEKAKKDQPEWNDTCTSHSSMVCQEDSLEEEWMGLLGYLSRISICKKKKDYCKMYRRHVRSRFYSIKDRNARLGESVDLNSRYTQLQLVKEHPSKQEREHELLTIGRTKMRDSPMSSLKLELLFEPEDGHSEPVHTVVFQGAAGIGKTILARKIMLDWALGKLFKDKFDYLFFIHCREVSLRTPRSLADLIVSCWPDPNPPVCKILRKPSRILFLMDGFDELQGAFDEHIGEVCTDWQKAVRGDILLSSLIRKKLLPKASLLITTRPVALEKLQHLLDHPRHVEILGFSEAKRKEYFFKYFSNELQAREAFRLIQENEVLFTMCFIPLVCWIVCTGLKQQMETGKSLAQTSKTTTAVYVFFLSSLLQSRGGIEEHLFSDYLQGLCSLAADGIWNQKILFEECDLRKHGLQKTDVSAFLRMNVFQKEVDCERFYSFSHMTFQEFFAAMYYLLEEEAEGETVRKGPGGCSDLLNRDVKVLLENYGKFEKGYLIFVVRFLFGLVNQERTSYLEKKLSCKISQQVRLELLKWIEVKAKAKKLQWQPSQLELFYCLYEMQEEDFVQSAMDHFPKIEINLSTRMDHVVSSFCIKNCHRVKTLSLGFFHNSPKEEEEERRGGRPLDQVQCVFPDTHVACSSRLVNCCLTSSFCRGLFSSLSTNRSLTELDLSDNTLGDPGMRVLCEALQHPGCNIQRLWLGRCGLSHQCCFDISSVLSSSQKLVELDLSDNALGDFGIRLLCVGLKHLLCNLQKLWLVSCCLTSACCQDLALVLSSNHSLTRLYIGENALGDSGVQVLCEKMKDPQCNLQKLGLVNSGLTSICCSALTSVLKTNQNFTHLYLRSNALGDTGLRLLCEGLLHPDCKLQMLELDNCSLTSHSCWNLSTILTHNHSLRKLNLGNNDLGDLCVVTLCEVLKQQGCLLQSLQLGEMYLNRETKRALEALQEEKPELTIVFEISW

HEK293 = experiment: (§1) Cytotoxicity against HEK293 cells assessed as cell viability at 10 uM incubated for 4 hrs by MTT assay relative to control; type: toxicity, cell-based; conditions: human, hek293, 4 h, 10 µM
J774.A1 = experiment: (§2) Cytotoxicity against mouse J774.A1 cells assessed as cell viability at 10 uM incubated for 4 hrs by MTT assay relative to control; type: toxicity, cell-based; conditions: j774.a1, 4 h, 10 µM
[2] = target: NLR family CARD domain-containing protein 4 (Mus musculus) (UniProt Q3UP24); experiment: Inhibition of NLRC4 inflammasome in LPS-primed mouse J774.A1 cells assessed as IL-1beta secretion at 10 uM preincubated for 1 hr followed by flagellin addition and measured after 6 hrs by ELISA relative to control; type: cell-based; parameters: scale not given: the % may be the effect or the level left; conditions: time 7.0 hrs
Chain of NLR family CARD domain-containing protein 4 (Mus musculus) (Q3UP24 whole entry, the tested form may be a part): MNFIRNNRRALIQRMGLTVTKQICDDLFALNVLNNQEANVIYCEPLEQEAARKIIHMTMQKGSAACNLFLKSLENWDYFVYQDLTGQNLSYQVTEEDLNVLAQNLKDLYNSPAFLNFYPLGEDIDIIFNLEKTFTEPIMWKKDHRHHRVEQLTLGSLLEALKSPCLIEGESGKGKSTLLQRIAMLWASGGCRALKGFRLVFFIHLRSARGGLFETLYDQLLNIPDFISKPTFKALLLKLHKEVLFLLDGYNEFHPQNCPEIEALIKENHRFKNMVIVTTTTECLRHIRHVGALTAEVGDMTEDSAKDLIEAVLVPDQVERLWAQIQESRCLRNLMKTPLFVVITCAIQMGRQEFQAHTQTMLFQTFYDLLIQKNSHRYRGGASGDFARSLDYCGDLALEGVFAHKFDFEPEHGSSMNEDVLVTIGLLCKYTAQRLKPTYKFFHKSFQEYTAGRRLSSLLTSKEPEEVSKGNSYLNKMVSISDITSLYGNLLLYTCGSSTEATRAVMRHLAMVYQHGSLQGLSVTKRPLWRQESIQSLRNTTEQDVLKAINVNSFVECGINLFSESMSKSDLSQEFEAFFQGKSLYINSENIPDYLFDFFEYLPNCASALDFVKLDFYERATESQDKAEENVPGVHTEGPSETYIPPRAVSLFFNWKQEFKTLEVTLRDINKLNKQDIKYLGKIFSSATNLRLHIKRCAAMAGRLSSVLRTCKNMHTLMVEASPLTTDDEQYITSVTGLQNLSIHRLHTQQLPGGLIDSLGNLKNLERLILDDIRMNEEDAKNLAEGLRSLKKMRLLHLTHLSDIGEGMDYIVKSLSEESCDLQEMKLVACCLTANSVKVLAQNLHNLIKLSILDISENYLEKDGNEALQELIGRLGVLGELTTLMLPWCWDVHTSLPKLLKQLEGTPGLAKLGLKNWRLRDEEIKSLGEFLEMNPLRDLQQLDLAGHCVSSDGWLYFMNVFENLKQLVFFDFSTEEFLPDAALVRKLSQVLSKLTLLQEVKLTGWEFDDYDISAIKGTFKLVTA

[3] = target: T2, Interferon-inducible protein AIM2 (Mus musculus) (UniProt Q91VJ1); experiment: Inhibition of AIM2 inflammasome in LPS-primed mouse J774.A1 cells assessed as IL-1beta secretion at 10 uM preincubated for 1 hr followed by poly(dA:dT) addition and measured after 4 hrs by ELISA relative to control; type: cell-based; parameters: scale not given: the % may be the effect or the level left; conditions: time 5.0 hrs
T2 sequence (whole entry): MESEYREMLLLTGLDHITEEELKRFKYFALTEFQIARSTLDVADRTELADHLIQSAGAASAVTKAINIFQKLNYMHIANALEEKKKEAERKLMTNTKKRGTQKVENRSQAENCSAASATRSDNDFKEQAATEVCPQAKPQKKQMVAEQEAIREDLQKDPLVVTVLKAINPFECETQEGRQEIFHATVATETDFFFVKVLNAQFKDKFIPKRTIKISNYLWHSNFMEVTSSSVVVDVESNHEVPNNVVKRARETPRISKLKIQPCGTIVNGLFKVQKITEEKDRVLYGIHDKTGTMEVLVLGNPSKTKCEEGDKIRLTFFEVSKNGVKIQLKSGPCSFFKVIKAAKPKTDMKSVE

[4] = target: NLR family CARD domain-containing protein 4 (Mus musculus, UniProt Q3UP24); experiment: Inhibition of NLRC4 inflammasome in LPS-primed mouse J774.A1 cells assessed as reduction in IL-1beta secretion preincubated for 1 hr followed by flagellin addition and measured after 6 hrs by ELISA; type: cell-based
Chain of NLR family CARD domain-containing protein 4 (Q3UP24 whole entry, the tested form may be a part): as the sequence (Q3UP24 whole entry, the tested form may be a part) above

[5] = target: T3, Interferon-inducible protein AIM2 (Mus musculus, UniProt Q91VJ1); experiment: Inhibition of AIM2 inflammasome in LPS-primed mouse J774.A1 cells assessed as reduction in IL-1beta secretion preincubated for 1 hr followed by poly(dA:dT) addition and measured after 4 hrs by ELISA; type: cell-based
T3 sequence (Q91VJ1 whole entry): T2 sequence (whole entry)

[6] = target: T1, NACHT, LRR and PYD domains-containing protein 3; experiment: Inhibition of NLRP3 inflammasome in LPS-primed mouse BMDM cells assessed as reduction in IL-1beta secretion preincubated for 30 mins followed by ATP addition and measured after 30 mins by ELISA; type: cell-based
[7] = target: NACHT, LRR and PYD domains-containing protein 3 (Homo sapiens, UniProt Q96P20); experiment: Binding affinity to human recombinant full length NLRP3 transfected in HEK293F cells assessed as dissociation constant incubated for 40 mins by microscale thermophoresis analysis
Chain of NACHT, LRR and PYD domains-containing protein 3 (Homo sapiens, UniProt Q96P20) (Q96P20 whole entry, the tested form may be a part): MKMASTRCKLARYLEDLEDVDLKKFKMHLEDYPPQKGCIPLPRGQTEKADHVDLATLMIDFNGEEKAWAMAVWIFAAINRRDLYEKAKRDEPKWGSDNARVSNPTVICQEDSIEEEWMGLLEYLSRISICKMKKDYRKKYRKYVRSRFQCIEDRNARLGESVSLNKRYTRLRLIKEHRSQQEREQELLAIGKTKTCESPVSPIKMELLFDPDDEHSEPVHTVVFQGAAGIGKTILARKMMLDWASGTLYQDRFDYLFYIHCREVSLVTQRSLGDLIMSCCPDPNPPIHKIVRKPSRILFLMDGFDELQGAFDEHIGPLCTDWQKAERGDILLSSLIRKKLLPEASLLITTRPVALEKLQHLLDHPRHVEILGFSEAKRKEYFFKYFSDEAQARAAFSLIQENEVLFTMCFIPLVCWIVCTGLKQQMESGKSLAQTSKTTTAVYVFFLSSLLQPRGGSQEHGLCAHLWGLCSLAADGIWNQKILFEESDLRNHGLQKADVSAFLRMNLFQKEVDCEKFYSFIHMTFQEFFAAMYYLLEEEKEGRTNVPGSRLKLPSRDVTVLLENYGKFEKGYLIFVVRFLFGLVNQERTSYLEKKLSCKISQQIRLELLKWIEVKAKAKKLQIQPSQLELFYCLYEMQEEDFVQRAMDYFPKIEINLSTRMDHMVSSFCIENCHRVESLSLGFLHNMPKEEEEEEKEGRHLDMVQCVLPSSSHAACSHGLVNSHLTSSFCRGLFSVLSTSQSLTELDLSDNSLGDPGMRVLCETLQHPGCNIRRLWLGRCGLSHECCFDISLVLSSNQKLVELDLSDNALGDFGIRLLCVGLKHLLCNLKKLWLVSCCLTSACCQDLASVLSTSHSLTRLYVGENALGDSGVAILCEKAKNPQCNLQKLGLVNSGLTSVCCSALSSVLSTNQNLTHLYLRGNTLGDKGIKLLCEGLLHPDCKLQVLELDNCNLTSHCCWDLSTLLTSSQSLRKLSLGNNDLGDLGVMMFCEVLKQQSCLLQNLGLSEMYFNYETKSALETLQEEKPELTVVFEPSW

[8] = Inhibition of IL-1beta production in C57BL/6 mouse assessed as reduction in IL-1beta level in serum at 10 mg/kg, ip pretreated with compound followed by LPS addition and measured after 2.5 hrs by ELISA; type: functional
[9] = as §1; type: toxicity, cell-based; conditions: human, HEK293 cells, read-out: Activity
[10] = as §2; type: toxicity, cell-based; conditions: J774.A1 cells, read-out: Activity
[11] = Drug uptake in iv dosed C57BL/6 mouse Brainstem measured after 60 mins by PET/CT imaging analysis; type: ADME, organism-based; conditions: in vivo, 1 h
[12] = Drug uptake in iv dosed C57BL/6 mouse Midbrain measured after 60 mins by PET/CT imaging analysis; type: ADME, organism-based; conditions: in vivo, 1 h
[13] = Drug uptake in iv dosed C57BL/6 mouse liver measured after 60 mins; conditions: in vivo, 1 h
[14] = Drug uptake in iv dosed C57BL/6 mouse lung measured after 60 mins; conditions: in vivo, 1 h
[15] = Drug uptake in iv dosed C57BL/6 mouse lung measured after 1 min by PET/CT imaging analysis; type: ADME, organism-based; conditions: in vivo
[16] = Drug uptake in iv dosed C57BL/6 mouse brain striatum measured after 60 mins by PET/CT imaging analysis; type: ADME, organism-based; conditions: in vivo, 1 h
[17] = Drug uptake in iv dosed C57BL/6 mouse blood measured after 60 mins; conditions: in vivo, 1 h
[18] = Drug uptake in iv dosed C57BL/6 mouse blood measured after 1 min by PET/CT imaging analysis; type: ADME, organism-based; conditions: in vivo
[19] = Uptake in iv dosed C57BL/6 mouse kidney measured after 60 mins; conditions: in vivo, 1 h
[20] = Drug uptake in iv dosed C57BL/6 mouse kidney measured after 3 min by PET/CT imaging analysis; type: ADME, organism-based; conditions: in vivo, 0.05 h
[21] = Drug uptake in iv dosed C57BL/6 mouse brain cerebellum measured after 60 mins by PET/CT imaging analysis; type: ADME, organism-based; conditions: in vivo, 1 h
[22] = Drug uptake in iv dosed C57BL/6 mouse brain measured after 60 mins by PET/CT imaging analysis; type: ADME, organism-based; conditions: in vivo, 1 h
[23] = Drug uptake in iv dosed C57BL/6 mouse hippocampus measured after 60 mins by PET/CT imaging analysis; type: ADME, organism-based; conditions: in vivo, 1 h
[24] = Drug uptake in iv dosed C57BL/6 mouse liver measured after 3 min by PET/CT imaging analysis; type: ADME, organism-based; conditions: in vivo, 0.05 h
[25] = Drug uptake in iv dosed C57BL/6 mouse brain cortex measured after 60 mins by PET/CT imaging analysis; type: ADME, organism-based; conditions: in vivo, 1 h
[26] = Drug uptake in iv dosed C57BL/6 mouse brain thalamus measured after 60 mins by PET/CT imaging analysis; type: ADME, organism-based; conditions: in vivo, 1 h

| Compound | IC50 [1] [nM] | Activity (HEK293) [%] | Activity (J774.A1) [%] | Activity [2] [%] | Activity [3] [%] | also measured |
| --- | --- | --- | --- | --- | --- | --- |
| CCCOc1ccc(Cl)cc1CN(CCc1ccc(S(=O)(=O)N2CCOCC2)cc1)C(=O)Cc1ccsc1 | 470 | 88.3 | 103.4 | – | – | – |
| C#CCNS(=O)(=O)c1ccc(CCN(Cc2cc(Cl)ccc2N)C(=O)Cc2ccsc2)cc1 | 1130 | 92.9 | 93.5 | – | – | – |
| C#CCNS(=O)(=O)c1ccc(CCN(Cc2ccccc2OCCC)C(=O)Cc2ccsc2)cc1 | 790 | 98.9 | 100.2 | 70.1 | 61.4 | – |
| C#CCS(=O)(=O)c1ccc(CCN(Cc2cc(Cl)ccc2OCCC)C(=O)c2csc3ccccc23)cc1 | 440 | 95.6 | 85.7 | 29.1 | 0 | – |
| C#CCNS(=O)(=O)c1ccc(CCN(Cc2ccsc2)Cc2cc(Cl)ccc2OCCC)cc1 | 750 | 82 | 90.5 | 28.9 | 49.8 | – |
| C#CCN(C)S(=O)(=O)c1ccc(CCN(Cc2cc(Cl)ccc2OCCC)C(=O)Cc2ccsc2)cc1 | 320 | 94.5 | 105.8 | 80.8 | 108 | IC50 [4]: > 10000 nM; IC50 [5]: > 10000 nM |
| C#CCNS(=O)(=O)c1ccc(CCN(Cc2cc(Cl)ccc2OCCC)C(=O)c2ccc(F)cc2)cc1 | 120 | 91.6 | 96.3 | 101 | 67.6 | IC50 [4]: > 10000 nM; IC50 [6]: 910 nM; Kd [7]: 84 nM; IC50 [5]: > 10000 nM; inhibition in vivo at 10 mg/kg [8]: 75% |
| C#CCNS(=O)(=O)c1ccc(CCN(Cc2cc(Cl)ccc2OCCC)C(=O)c2csc3ccccc23)cc1 | 130 | 92.6 | 108.1 | 74.7 | 79.7 | – |
| C#CCNS(=O)(=O)c1ccc(CCN(Cc2cccc3c2OCO3)C(=O)Cc2ccsc2)cc1 | 340 | 100.7 | 100 | 66.9 | 68.8 | – |
| CC(C)(C)c1coc(S(=O)(=O)NC(=O)Nc2c3c(cc4c2CCC4)CCC3)c1 | – | – | – | – | – | viability at 4 h, 10 µM [9]: 95.2%; viability at 4 h, 10 µM [10]: 94.9% |
| CCCOc1ccc(Cl)cc1CN(CCc1ccc(S(=O)(=O)N2CCC2)cc1)C(=O)Cc1ccc(F)cc1 | 1350 | 103.6 | 106.1 | 109 | 102 | – |
| C#CCNS(=O)(=O)c1ccc(CCN(Cc2cc(Cl)ccc2OCCC)C(=O)c2ccc([N+](=O)[O-])cc2)cc1 | 760 | 91.6 | 101.3 | – | – | – |
| C#CCS(=O)(=O)c1ccc(CCN(Cc2cc(Cl)ccc2OCCC)C(=O)Cc2ccsc2)cc1 | 190 | 88.7 | 81.1 | 0 | 0 | – |
| C#CCNS(=O)(=O)c1ccc(CCN(Cc2cc(Cl)ccc2OCCC)C(=O)c2ccc(O)cc2)cc1 | 620 | 92.1 | 83.5 | – | – | – |
| C#CCNS(=O)(=O)c1ccc(CCN(Cc2cc(Cl)ccc2OCC#C)C(=O)Cc2ccsc2)cc1 | 210 | 94.8 | 95.5 | – | – | – |
| C#CCNS(=O)(=O)c1ccc(CCN(Cc2cc(Cl)ccc2O)C(=O)Cc2ccsc2)cc1 | 680 | 97.6 | 92 | 8 | 47.3 | – |
| C#CCNS(=O)(=O)c1ccc(CCN(Cc2cc(Cl)ccc2C(F)(F)F)C(=O)Cc2ccsc2)cc1 | 460 | 92.1 | 93.1 | – | – | – |
| C#CCNS(=O)(=O)c1ccc(CCN(Cc2cc(Cl)ccc2OCCC)C(=O)Cc2ccsc2)cc1 | – | 99 | 106 | – | – | – |
| C#CCNS(=O)(=O)c1ccc(CCN(Cc2cc(Cl)ccc2[N+](=O)[O-])C(=O)Cc2ccsc2)cc1 | 300 | 96.2 | 98.7 | 78.9 | 82.7 | – |
| CCCOc1ccc(Cl)cc1CN(CCc1ccc(S(=O)(=O)NCC(C)(C)C)cc1)C(=O)Cc1ccsc1 | 660 | – | 105.1 | 89.3 | 52.3 | – |
| C#CCNS(=O)(=O)c1ccc(CCN(Cc2cc(Cl)ccc2OCCC)C(=O)CCCc2ccsc2)cc1 | 1170 | 89.1 | 97.9 | – | – | – |
| CCCOc1ccc(Cl)cc1CN(CCc1ccc(S(=O)(=O)N2CCC2)cc1)C(=O)c1csc2ccccc12 | 7580 | 100.7 | 107 | – | – | – |
| C#CCNS(=O)(=O)c1ccc(CCN(Cc2cccc3c2OCO3)C(=O)c2ccc(F)cc2)cc1 | 930 | 93.4 | 99.5 | – | – | – |
| C#CCNS(=O)(=O)c1ccc(CCN(Cc2cc(Cl)ccc2OCCC)C(=O)Cc2ccc(F)cc2)cc1 | 280 | 90.6 | 102.2 | – | – | – |
| C#CCNS(=O)(=O)c1ccc(CCN(Cc2ccco2)C(=O)Cc2ccsc2)cc1 | 2490 | 96.4 | 112.9 | 76.2 | 89.4 | – |
| C#CCNS(=O)(=O)c1ccc(CCN(Cc2cc(Cl)ccc2OCCC)C(=O)c2ccc([18F])cc2)cc1 | – | – | – | – | – | Drug uptake [11]: Active; Drug uptake [12]: Active; Drug uptake [13]: 12 %ID/cc; Drug uptake [14]: 4.7 %ID/cc; Drug uptake [15]: 22.6 %ID/cc; Drug uptake [16]: Active; Drug uptake [17]: 4.2 %ID/cc; Drug uptake [18]: 30.1 %ID/cc; Drug uptake [19]: 12.3 %ID/cc; Drug uptake [20]: 20 %ID/cc; Drug uptake [21]: Active; Drug uptake [22]: 1.8 %ID/cc; Drug uptake [23]: Active; Drug uptake [24]: 18.1 %ID/cc; Drug uptake [25]: Active; Drug uptake [26]: Active |
| C#CCNS(=O)(=O)c1ccc(CCN(Cc2cc(Cl)ccc2OCCC)C(=O)c2csc3c2CCCC3)cc1 | 510 | 95.9 | 93.7 | – | – | – |
| C#CCNS(=O)(=O)c1ccc(CCN(Cc2cc(Cl)ccc2OCCC)C(=O)Cc2csc3ccccc23)cc1 | 210 | 99.8 | 105.4 | 85.6 | 96.7 | IC50 [4]: > 10000 nM; IC50 [5]: > 10000 nM |
| C#CCNS(=O)(=O)c1ccc(CCN(Cc2cccc3c2OCO3)C(=O)Cc2ccc(F)cc2)cc1 | 190 | 96.2 | 96.8 | 102 | 59.1 | – |
| C#CCNS(=O)(=O)c1ccc(CCN(Cc2cc(Cl)ccc2OCCC)C(=O)c2ccc(B3OC(C)(C)C(C)(C)O3)cc2)cc1 | 2490 | 95.2 | 88.1 | – | – | – |
